Experimental data published in the supplement of paper PMC6045584.
± gives the standard deviation of the averaged measurements.

Legend:
[1] = compound: C[C@]12CC[C@H](O)CC1=CC[C@@H]1[C@@H]2CC[C@]2(C)C(c3cccnc3)=CC[C@@H]12 [ABIRATERONE]; experiment: surviving fraction relative to DMSO-only wells; higher = less growth inhibition; settings: exposure time: 5 days
Method in brief: (§1)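 Tumour cell lines were seeded in log phase at 250–500 cells per well into 384-well plates. Starting 24 hours later, inhibitors were present continuously for five days at 0.5, 1, 5, 10, 50, 100, 500 and 1000 nM. Surviving fraction, from CellTiter-Glo luminescence, is normalised to the median of DMSO-only wells. Three screens per line were required, with replicate Pearson r >0.7 and median Z' >0.3 for a line to be kept.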

[2] = compound: CCn1c(C(=O)N(C2CC2)C2CC2)cc2c3c(ncn3C)c(Nc3cc(C)n(C)n3)nc21; experiment: as above; settings: exposure time: 5 days
Method in brief: as §1

Test System	surviving fraction ([1]; 0.5 nM)	surviving fraction ([1]; 1 nM)	surviving fraction ([1]; 5 nM)	surviving fraction ([1]; 10 nM)	surviving fraction ([1]; 50 nM)	surviving fraction ([1]; 100 nM)	surviving fraction ([1]; 500 nM)	surviving fraction ([1]; 1000 nM)	surviving fraction ([2]; 0.5 nM)	surviving fraction ([2]; 1 nM)	surviving fraction ([2]; 5 nM)	surviving fraction ([2]; 10 nM)	surviving fraction ([2]; 50 nM)	surviving fraction ([2]; 100 nM)	surviving fraction ([2]; 500 nM)	surviving fraction ([2]; 1000 nM)
NOS1 BONE	1.27 ± 0.16	1.05 ± 0.044	1.23 ± 0.089	1.22 ± 0.099	1.19 ± 0.15	1.24 ± 0.17	1.2 ± 0.095	0.999 ± 0.04	1.09 ± 0.11	1.13 ± 0.12	1.14 ± 0.035	1.04 ± 0.1	1.12 ± 0.15	1.13 ± 0.088	1.06 ± 0.2	0.884 ± 0.16
NY BONE	1.05 ± 0.021	1.06 ± 0.029	1.08 ± 0.034	1.1 ± 0.059	1.105 ± 0.011	1.09 ± 0.032	1.08 ± 0.027	1.06 ± 0.028	0.934 ± 0.0062	0.932 ± 0.038	1.002 ± 0.01	0.975 ± 0.026	1.02 ± 0.022	0.99 ± 0.013	0.922 ± 0.025	0.915 ± 0.018
OS25HAL BONE	1.02 ± 0.02	1.01 ± 0.011	1.039 ± 0.0055	0.989 ± 0.021	1.106 ± 0.0096	1.08 ± 0.017	1.07 ± 0.053	1.07 ± 0.034	0.9497 ± 0.005	0.953 ± 0.018	0.945 ± 0.015	0.952 ± 0.022	1.04 ± 0.024	1.045 ± 0.0067	1.018 ± 0.0064	1.01 ± 0.011
OSHN BONE	1.13 ± 0.021	1.102 ± 0.009	1.12 ± 0.022	1.09 ± 0.029	1.13 ± 0.016	1.13 ± 0.031	1.11 ± 0.017	1.09 ± 0.024	1.03 ± 0.026	1.02 ± 0.016	1.03 ± 0.017	1.01 ± 0.025	1.05 ± 0.041	1.03 ± 0.04	1.03 ± 0.033	0.999 ± 0.023
PCI30 HEADNECK	1.12 ± 0.065	1.03 ± 0.091	1.11 ± 0.018	1.12 ± 0.068	1.18 ± 0.071	1.04 ± 0.013	1.04 ± 0.11	1.03 ± 0.065	0.872 ± 0.024	0.74 ± 0.04	0.98 ± 0.05	1 ± 0.073	0.991 ± 0.065	1.01 ± 0.026	0.964 ± 0.013	0.895 ± 0.049
RDES SOFT TISSUE	1.19 ± 0.14	1.18 ± 0.12	1.21 ± 0.15	1.13 ± 0.11	1.2 ± 0.25	1.22 ± 0.25	1.28 ± 0.23	1.36 ± 0.27	1.24 ± 0.11	1.2 ± 0.16	1.33 ± 0.071	1.27 ± 0.024	1.26 ± 0.12	1.19 ± 0.13	1.22 ± 0.13	1.39 ± 0.12
S68 BREAST	0.939 ± 0.22	0.785 ± 0.063	1.21 ± 0.21	0.925 ± 0.098	1.17 ± 0.021	1.17 ± 0.092	0.942 ± 0.15	0.878 ± 0.17	1.1 ± 0.39	0.683 ± 0.17	0.816 ± 0.16	0.974 ± 0.13	1.35 ± 0.11	0.945 ± 0.054	0.823 ± 0.016	0.817 ± 0.11
SAOS2 BONE	1.1 ± 0.015	1.16 ± 0.11	1.23 ± 0.041	1.16 ± 0.018	1.183 ± 0.0029	1.24 ± 0.04	1.204 ± 0.012	1.1 ± 0.017	1 ± 0.061	0.97 ± 0.011	1.06 ± 0.12	0.96 ± 0.031	1.12 ± 0.02	1.05 ± 0.069	1.05 ± 0.072	1.04 ± 0.091
SCC003 HEADNECK	1.15 ± 0.044	1.11 ± 0.14	1.09 ± 0.08	1.14 ± 0.065	1.27 ± 0.084	1.13 ± 0.088	1.19 ± 0.042	1.1 ± 0.034	0.92 ± 0.15	0.937 ± 0.047	1.02 ± 0.095	0.968 ± 0.015	1.11 ± 0.099	1.12 ± 0.12	0.917 ± 0.12	0.928 ± 0.045
SCC36 HEADNECK	1.04 ± 0.094	1.09 ± 0.022	1.24 ± 0.08	1.14 ± 0.072	1.15 ± 0.046	1.1 ± 0.15	1.02 ± 0.061	1.02 ± 0.034	0.87 ± 0.045	1.07 ± 0.1	1.12 ± 0.077	1.11 ± 0.044	1.12 ± 0.073	1.04 ± 0.032	1.07 ± 0.093	0.962 ± 0.057
SCC47 HEADNECK	1.18 ± 0.061	1.11 ± 0.027	1.17 ± 0.061	1.19 ± 0.1	1.22 ± 0.13	1.36 ± 0.098	1.25 ± 0.093	1.17 ± 0.077	0.86 ± 0.014	0.823 ± 0.037	0.995 ± 0.094	0.968 ± 0.1	0.99 ± 0.063	1.06 ± 0.072	0.88 ± 0.016	0.916 ± 0.12
SCC90 HEADNECK	1.26 ± 0.13	1.09 ± 0.15	1.25 ± 0.14	1.23 ± 0.18	1.21 ± 0.04	1.28 ± 0.1	1.23 ± 0.11	1.17 ± 0.062	0.826 ± 0.041	0.929 ± 0.046	1.05 ± 0.14	0.964 ± 0.091	0.976 ± 0.04	1.01 ± 0.13	0.875 ± 0.093	0.922 ± 0.061
SG27 HEADNECK	1.09 ± 0.064	0.971 ± 0.11	1.05 ± 0.067	0.927 ± 0.039	0.867 ± 0.066	0.997 ± 0.08	0.957 ± 0.14	0.985 ± 0.07	0.996 ± 0.14	0.974 ± 0.089	1.01 ± 0.067	1.01 ± 0.056	1.02 ± 0.077	1.03 ± 0.11	0.915 ± 0.074	0.931 ± 0.17
SG28 HEADNECK	1.11 ± 0.046	1.08 ± 0.11	1.02 ± 0.048	1.04 ± 0.12	1.02 ± 0.18	1.07 ± 0.043	1.01 ± 0.066	1.04 ± 0.13	1.06 ± 0.11	1.05 ± 0.038	1.02 ± 0.025	1.02 ± 0.046	1.13 ± 0.043	0.954 ± 0.096	0.951 ± 0.081	0.95 ± 0.093
SG31 HEADNECK	1.21 ± 0.14	1.11 ± 0.19	1.09 ± 0.12	0.866 ± 0.035	1.06 ± 0.13	0.997 ± 0.03	1.13 ± 0.23	0.981 ± 0.065	1.04 ± 0.069	1.02 ± 0.043	1.02 ± 0.12	0.875 ± 0.1	0.949 ± 0.13	1.08 ± 0.46	0.955 ± 0.16	0.961 ± 0.06
SG32 HEADNECK	1.18 ± 0.12	1.29 ± 0.2	1.13 ± 0.2	1.22 ± 0.11	1.15 ± 0.05	1.17 ± 0.12	1.13 ± 0.16	1.21 ± 0.19	0.996 ± 0.081	1.17 ± 0.013	1.22 ± 0.2	1.22 ± 0.25	0.95 ± 0.19	0.98 ± 0.12	1.02 ± 0.24	0.86 ± 0.022
